{
  "source": "patent US10676467B2",
  "about": "(Washington University, priority 2017, dated 2020)",
  "key": {"[1]": {"assay": "Nonhuman primate (NHP) brain microPET scan", "format": "in vivo, macaques", "conditions": "normal NHP", "method": "To examine if newly-synthesized S1P1 radioligands could cross the BBB of NHPs, two male macaques (9-10 kg) were studied with a microPET Focus 220 scanner (Concorde/CTI/Siemens Microsystems, Knoxville, Tenn.). The welfare of the animals conformed to the requirements of National Institutes of Health (NIH). This work was conducted at the Nonhuman Primate Facility of Washington University in St. Louis with approval from the IACUC. Animals were maintained in facilities with 12-hour dark and light cycles, given access to food and water ad libitum and provided a variety of psychologically enriching tasks to prevent inappropriate deprivation. Animals were scanned under anesthesia (induced with ketamine and glycopyrrolate and maintained with inhalation isoflurane). Core temperature was kept about 37° C. with a heated water blanket. The head was secured in a head holder with the brain in the center of the field of view.\nPET scans were collected from O-120 min with the following time frames: 3×1 min, 4×2 min, 3×3 min and 20×5 min. Emission data were corrected for dead time, scatter and attenuation and then reconstructed to a final resolution of 2.0 mm full-width half maximum in all 3 dimensions at the center of the field of view. PET and MRI images were co-registered using automated image registration program (AIR). For quantitative analyses, three-dimensional ROI (the global brain) was identified on the MRI and transformed to the reconstructed PET images to obtain time-activity curves. Activity measures were standardized to body weight and the dose of radioactivity injected to yield standardized uptake value (SUV)."}, "S1P1 [2]": {"target": "T1, S1P1 (Rattus norvegicus (Rat), UniProt P48303)", "T1 sequence (P48303 whole entry)": "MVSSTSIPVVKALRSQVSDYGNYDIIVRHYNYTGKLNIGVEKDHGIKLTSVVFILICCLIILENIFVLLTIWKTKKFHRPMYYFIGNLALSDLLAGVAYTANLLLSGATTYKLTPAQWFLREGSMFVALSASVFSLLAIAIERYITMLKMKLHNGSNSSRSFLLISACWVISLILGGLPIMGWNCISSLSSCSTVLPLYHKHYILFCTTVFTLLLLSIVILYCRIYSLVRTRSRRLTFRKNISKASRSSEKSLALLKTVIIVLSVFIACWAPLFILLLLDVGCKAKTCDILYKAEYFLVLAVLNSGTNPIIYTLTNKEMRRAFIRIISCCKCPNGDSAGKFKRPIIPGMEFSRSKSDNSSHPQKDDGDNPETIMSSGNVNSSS", "assay": "MicroPET and tracer kinetic modeling in EAE rat model, lumbar spinal cord", "format": "in vivo", "conditions": "for 2TCM Vd / LoganAIF Vd: lumbar spinal cord, n = 3-4", "protocol": "MicroPET scans were performed using an Inveon PET/CT system (Siemens Inc., Knoxville, Tenn.). […] Each rat was secured to a custom-designed acrylic bed equipped with a nosecone for gas anesthesia. PET/CT scans were conducted under 1.5-2% isoflurane anesthesia with the rat placed in transaxial position and centered with the T13 vertebral spine in the field of view. […] A list mode protocol was used with 60-min dynamic data acquisition.\nPET image data was processed using filter back projection algorithm with attenuation and scatter corrections. The data were reconstructed per time frame employing an iterative reconstructional algorithm (three-dimensional ordered subset expectation maximization (3D-OSEM), maximum a posteriori (MAP)) and corrected for decay, random coincidences, scatter, and attenuation. […] Image data was analyzed using Inveon Research Workstation software IRW 4.2 (Siemens Inc., Knoxville, Tenn.). The regions of interest (ROI), the lumbar spinal cord and bilateral common carotid arteries, were drawn over the co-registered PET/CT images using the standard protocol published previously. Time-activity curves (TACs) were obtained and were expressed as % ID/g. A two-tailed t-test was used for the comparison of the tracer uptake in EAE rat lumbar spinal cord versus sham. A P value less than 0.05 was considered statistically significant. Time-activity curves were further analyzed using 2-tissue-compartment model (2TCM), as well as Logan graphical analysis, using the ROI over bilateral common carotid arteries for image-based arterial blood input function."}, "[3]": {"assay": "Ex vivo biodistribution in female Lewis rats", "parameters": "species or system rat", "conditions": "for Tissue uptake, Blood / Tissue uptake, Bone / Tissue uptake, Brain / Tissue uptake, Fat / Tissue uptake, Heart / Tissue uptake, Kidney / Tissue uptake, Liver / Tissue uptake, Lung / Tissue uptake, Muscle / Tissue uptake, Pancreas / Tissue uptake, Spleen / Tissue uptake, Thymus: n = 4", "description": "Organs of blood, heart, lung, muscle, fat, pancreas, spleen, kidney, liver, thymus, brain, and bone were dissected and collected for counting. All the samples were counted with a dilution of the injectate on an automated well counter (Beckman Gamma 8000 well counter). Tissues were weighed and the uptake was reported as background and decay-corrected percent injected dose per gram (% ID/g).\nThe whole brains were quickly harvested and dissected into regions of cerebellum, brain stem, cortex, striatum, thalamus, and hippocampus, the remainder of the brain was also collected to determine the total brain uptake. Organs of blood, heart, lung, muscle, fat, pancreas, spleen, kidney, liver, thymus, and bone were also dissected and collected for counting. All the samples were counted with a dilution of the injectate on an automated well counter (Beckman Gamma 8000 well counter). Tissues were weighed and the uptake was reported as background and decay-corrected percent injected dose per gram (% ID/g)."}, "S1P1 [4]": {"target": "T1, S1P1", "assay": "In vitro autoradiography of [18F]12a in rat brain slices, SEW2871 blocking", "format": "binding", "conditions": "rat brain sections, ~6 nM tracer, 10 μM SEW2871, 60 min RT", "method": "Adult female Lewis rats (n=2, 100-125 g, Charles River) were used to perform the autoradiography study. The rats (n=2) was euthanized and the brains were collected and cut into 20 μm sequential sections using a Microm cryotome and mounted on glass slides. […] Following the incubation, the brain sections were washed and exposed to the Storage Phosphor Screen in an imaging cassette overnight in −20° C. at dark for 12 h. The distribution of radioactivity was visualized by a Fuji Bio-Imaging Analyzer FLA-7000 (Fuji Photo Film, Tokyo, Japan). Photo-stimulated luminescence (PSL) from the brain slices was quantified using Multi Gauge v3.0 software (Fuji Photo Film Co., Tokyo, Japan). Data were background-corrected, and expressed as photo-stimulated luminescence signals per square millimeter (PSL/mm^2)."}, "[5]": {"conditions": "5 min p.i., literature value; cited from earlier work"}},
  "note": "Where “and” joins values, the source holds several entries; their conditions need not be identical. Equal entries are not always repeated. Entries after “also recorded” stand apart in the source; their conditions may differ.",
  "data": [
    {"smiles": "OCCOCc1ccc(-c2noc(-c3ccc(OCC[18F])c(C(F)(F)F)c3)n2)cc1", "note": "[[^18F]12a]", "values": [
      {"measurement": "Max SUV value in total brain", "setting": "[1]; microPET", "value": "~2.9", "unit": "SUV"},
      {"measurement": "Blood-brain barrier crossing, NHP brain", "setting": "[1]; microPET, listed as 18F-TZ4877", "value": "able to cross the blood brain barrier; also recorded: able to cross the BBB"},
      {"measurement": "Time to max SUV in total brain", "setting": "[1]; post injection", "value": "~5", "unit": "min"},
      {"measurement": "Visualization of rat lumbar spinal cord by microPET", "setting": "S1P1 [2]; EAE and sham rats", "value": "clear visualization of lumbar spinal cord"},
      {"measurement": "2TCM Vd", "setting": "S1P1 [2]; EAE rats", "value": "2.18 ± 0.20", "unit": "mL/g"},
      {"measurement": "LoganAIF Vd", "setting": "S1P1 [2]; EAE rats", "value": "2.18 ± 0.20", "unit": "mL/g"},
      {"measurement": "Tracer uptake in lumbar spinal cord, EAE", "setting": "S1P1 [2]; EAE rats, summed SUV values 10-60 min post injection, n=3-4", "value": "1.42±0.14", "unit": "SUV"},
      {"measurement": "2TCM Vd", "setting": "S1P1 [2]; Sham rats", "value": "1.80 ± 0.20", "unit": "mL/g"},
      {"measurement": "LoganAIF Vd", "setting": "S1P1 [2]; Sham rats", "value": "1.77 ± 0.24", "unit": "mL/g"},
      {"measurement": "Increase of tracer uptake in EAE rat lumbar spinal cord compared with shams", "setting": "S1P1 [2]; microPET, 10-60 min post injection", "value": 29.5, "unit": "%"},
      {"measurement": "Averaged tracer uptake in sham rat spinal cord", "setting": "S1P1 [2]; sham rats, 10-60 min post injection", "value": "1.0-1.1"},
      {"measurement": "Tracer uptake in lumbar spinal cord, sham", "setting": "S1P1 [2]; sham rats, summed SUV values 10-60 min post injection, n=3-4", "value": "1.10±0.06", "unit": "SUV"},
      {"measurement": "Tissue uptake, Blood", "setting": "[3]; 5 min p.i.", "value": "0.36 % ID/g and 0.36 ± 0.04 % ID/g"},
      {"measurement": "Tissue uptake, Blood", "setting": "[3]; 30 min p.i.", "value": "0.51 ± 0.01", "unit": "% ID/g"},
      {"measurement": "Tissue uptake, Blood", "setting": "[3]; 60 min p.i.", "value": "0.57 ± 0.03", "unit": "% ID/g"},
      {"measurement": "Tissue uptake, Blood", "setting": "[3]; 120 min p.i.", "value": "0.66 ± 0.04", "unit": "% ID/g"},
      {"measurement": "Tissue uptake, Bone", "setting": "[3]; 5 min p.i.", "value": "0.40 ± 0.04", "unit": "% ID/g"},
      {"measurement": "Tissue uptake, Bone", "setting": "[3]; 30 min p.i.", "value": "0.34 ± 0.02", "unit": "% ID/g"},
      {"measurement": "Tissue uptake, Bone", "setting": "[3]; 60 min p.i.", "value": "0.34 ± 0.01", "unit": "% ID/g"},
      {"measurement": "Tissue uptake, Bone", "setting": "[3]; 120 min p.i.", "value": "0.42 ± 0.02", "unit": "% ID/g"},
      {"measurement": "Tissue uptake, Brain", "setting": "[3]; 5 min p.i.", "value": "1.31 % ID/g and 1.31 ± 0.06 % ID/g"},
      {"measurement": "Tissue uptake, Brain", "setting": "[3]; 30 min p.i.", "value": "1.34 ± 0.08", "unit": "% ID/g"},
      {"measurement": "Tissue uptake, Brain", "setting": "[3]; 60 min p.i.", "value": "1.13 ± 0.05", "unit": "% ID/g"},
      {"measurement": "Tissue uptake, Brain", "setting": "[3]; 120 min p.i.", "value": "0.87 ± 0.04", "unit": "% ID/g"},
      {"measurement": "Tissue uptake, Fat", "setting": "[3]; 5 min p.i.", "value": "0.24 % ID/g and 0.24 ± 0.03 % ID/g"},
      {"measurement": "Tissue uptake, Fat", "setting": "[3]; 30 min p.i.", "value": "1.63 ± 0.36", "unit": "% ID/g"},
      {"measurement": "Tissue uptake, Fat", "setting": "[3]; 60 min p.i.", "value": "1.50 ± 0.08", "unit": "% ID/g"},
      {"measurement": "Tissue uptake, Fat", "setting": "[3]; 120 min p.i.", "value": "1.91 ± 0.19", "unit": "% ID/g"},
      {"measurement": "Tissue uptake, Heart", "setting": "[3]; 5 min p.i.", "value": "1.16 % ID/g and 1.16 ± 0.01 % ID/g"},
      {"measurement": "Tissue uptake, Heart", "setting": "[3]; 30 min p.i.", "value": "1.01 ± 0.08", "unit": "% ID/g"},
      {"measurement": "Tissue uptake, Heart", "setting": "[3]; 60 min p.i.", "value": "0.85 ± 0.04", "unit": "% ID/g"},
      {"measurement": "Tissue uptake, Heart", "setting": "[3]; 120 min p.i.", "value": "0.74 ± 0.03", "unit": "% ID/g"},
      {"measurement": "Tissue uptake, Kidney", "setting": "[3]; 5 min p.i.", "value": "2.14 % ID/g and 2.14 ± 0.14 % ID/g"},
      {"measurement": "Tissue uptake, Kidney", "setting": "[3]; 30 min p.i.", "value": "1.43 % ID/g and 1.43 ± 0.08 % ID/g"},
      {"measurement": "Tissue uptake, Kidney", "setting": "[3]; 60 min p.i.", "value": "1.18 ± 0.04", "unit": "% ID/g"},
      {"measurement": "Tissue uptake, Kidney", "setting": "[3]; 120 min p.i.", "value": "1.01 ± 0.04", "unit": "% ID/g"},
      {"measurement": "Tissue uptake, Liver", "setting": "[3]; 5 min p.i.", "value": "4.87 % ID/g and 4.87 ± 0.27 % ID/g"},
      {"measurement": "Tissue uptake, Liver", "setting": "[3]; 30 min p.i.", "value": "3.58 % ID/g and 3.58 ± 0.28 % ID/g"},
      {"measurement": "Tissue uptake, Liver", "setting": "[3]; 60 min p.i.", "value": "3.32 ± 0.33", "unit": "% ID/g"},
      {"measurement": "Tissue uptake, Liver", "setting": "[3]; 120 min p.i.", "value": "3.23 ± 0.10", "unit": "% ID/g"},
      {"measurement": "Tissue uptake, Lung", "setting": "[3]; 5 min p.i.", "value": "1.31 % ID/g and 1.31 ± 0.01 % ID/g"},
      {"measurement": "Tissue uptake, Lung", "setting": "[3]; 30 min p.i.", "value": "1.20 ± 0.06", "unit": "% ID/g"},
      {"measurement": "Tissue uptake, Lung", "setting": "[3]; 60 min p.i.", "value": "1.01 ± 0.04", "unit": "% ID/g"},
      {"measurement": "Tissue uptake, Lung", "setting": "[3]; 120 min p.i.", "value": "0.87 ± 0.02", "unit": "% ID/g"},
      {"measurement": "Tissue uptake, Muscle", "setting": "[3]; 5 min p.i.", "value": "0.28 % ID/g and 0.28 ± 0.02 % ID/g"},
      {"measurement": "Tissue uptake, Muscle", "setting": "[3]; 30 min p.i.", "value": "0.54 ± 0.01", "unit": "% ID/g"},
      {"measurement": "Tissue uptake, Muscle", "setting": "[3]; 60 min p.i.", "value": "0.49 ± 0.03", "unit": "% ID/g"},
      {"measurement": "Tissue uptake, Muscle", "setting": "[3]; 120 min p.i.", "value": "0.42 ± 0.01", "unit": "% ID/g"},
      {"measurement": "Tissue uptake, Pancreas", "setting": "[3]; 5 min p.i.", "value": "2.19 % ID/g and 2.19 ± 0.04 % ID/g"},
      {"measurement": "Tissue uptake, Pancreas", "setting": "[3]; 30 min p.i.", "value": "1.52 % ID/g and 1.52 ± 0.04 % ID/g"},
      {"measurement": "Tissue uptake, Pancreas", "setting": "[3]; 60 min p.i.", "value": "1.21 ± 0.10", "unit": "% ID/g"},
      {"measurement": "Tissue uptake, Pancreas", "setting": "[3]; 120 min p.i.", "value": "0.98 ± 0.05", "unit": "% ID/g"},
      {"measurement": "Tissue uptake, Spleen", "setting": "[3]; 5 min p.i.", "value": "1.14 % ID/g and 1.14 ± 0.10 % ID/g"},
      {"measurement": "Tissue uptake, Spleen", "setting": "[3]; 30 min p.i.", "value": "0.79 % ID/g and 0.79 ± 0.06 % ID/g"},
      {"measurement": "Tissue uptake, Spleen", "setting": "[3]; 60 min p.i.", "value": "0.65 ± 0.02", "unit": "% ID/g"},
      {"measurement": "Tissue uptake, Spleen", "setting": "[3]; 120 min p.i.", "value": "0.55 ± 0.03", "unit": "% ID/g"},
      {"measurement": "Tissue uptake, Thymus", "setting": "[3]; 5 min p.i.", "value": "0.79 % ID/g and 0.79 ± 0.12 % ID/g"},
      {"measurement": "Tissue uptake, Thymus", "setting": "[3]; 30 min p.i.", "value": "0.68 ± 0.06", "unit": "% ID/g"},
      {"measurement": "Tissue uptake, Thymus", "setting": "[3]; 60 min p.i.", "value": "0.58 ± 0.04", "unit": "% ID/g"},
      {"measurement": "Tissue uptake, Thymus", "setting": "[3]; 120 min p.i.", "value": "0.51 ± 0.05", "unit": "% ID/g"},
      {"measurement": "Defluorination in vivo (bone uptake 5 to 120 min)", "setting": "[3]; bone radioactivity unchanged", "value": "no metabolic defluorination in vivo"},
      {"measurement": "Reduction of radioactivity by SEW2871 blocking", "setting": "S1P1 [4]", "value": "~30", "unit": "%"}
    ]},
    {"smiles": "O=C(O)C1CN(Cc2ccc(-c3noc(-c4ccc(OCC[18F])c(C(F)(F)F)c4)n3)cc2)C1", "note": "[[^18F]4]", "values": [
      {"measurement": "Brain uptake of previous radiotracer", "setting": "[5]", "value": 0.49, "unit": "% ID/g"}
    ]}
  ]
}
